From PubChem BioAssay AID652210 (Johns Hopkins Ion Channel Center, 2013) come the findings set out here.

The target of the assay is Potassium channel subfamily K member 9 (Homo sapiens) (UniProt Q9NPC2). As to the kind of experiment: KCNK9 (TASK3) current inhibition by patch clamp, SAR follow-up, selectivity assay for TASK1 (KCNK3) inhibitor project, cell-based, automated electrophysiology (AID 652210). The note with it: HEK293 inducible KCNK9, QPatch automated patch clamp. In general terms: Patch clamp records ionic current or voltage across a cell membrane.
Potassium channel subfamily K member 9 (Homo sapiens), sequence (Q9NPC2 whole entry, looked up): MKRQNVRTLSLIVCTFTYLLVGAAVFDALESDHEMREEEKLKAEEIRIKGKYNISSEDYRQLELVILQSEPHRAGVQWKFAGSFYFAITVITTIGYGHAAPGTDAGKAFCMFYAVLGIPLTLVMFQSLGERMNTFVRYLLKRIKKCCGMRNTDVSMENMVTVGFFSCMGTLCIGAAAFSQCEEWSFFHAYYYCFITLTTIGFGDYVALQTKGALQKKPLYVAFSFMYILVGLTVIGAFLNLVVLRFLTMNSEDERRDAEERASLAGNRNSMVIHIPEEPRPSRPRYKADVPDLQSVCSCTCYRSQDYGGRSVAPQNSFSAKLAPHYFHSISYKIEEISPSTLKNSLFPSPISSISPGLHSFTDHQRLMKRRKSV

The structures appear in SMILES notation. Active and inactive are the calls of the source.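 How the source made its calls: active means over half block of KCNK9 potassium channel current at 10 µM; inactive means the rest.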

By IC50 is commonly meant the concentration that gives 50% inhibition. `Cc1cccc(C(=O)Nc2cccc(NC(=O)c3ccccc3)c2)c1`: the IC50 is 0.69 µM. With `Cc1cccc(C(=O)Nc2cccc(NC(=O)c3ccncc3)c2)c1` the entry was “inactive”.
